Experimental data as given in patent US20140228303A1, “NOVEL SGLT INHIBITORS” (Panacea Biotec Ltd, priority 2011, published 2014).

How the values were obtained:
C57BL/6J mice = assay: Estimation of urinary glucose in C57BL/6J mice; assay type: in vivo, mouse; conditions: urine collected over 24 h
Description: Estimation of Urinary Glucose in C57BL/6J Mice
C57BL/6J mice were fasted 4 h before drug treatment. Fasted mice were weighed and randomized into different groups based on their body weight (n=6). At time T0 test compounds and standard compounds suspended in 0.25% CMC or PEG 400 formulation, were administered to respective groups and kept in metabolic cages (6 mice/cage) after dosing. Animals were fed after drug administration and urine was collected over a period of 24 h. Urinary volume was measured and urinary glucose was estimated using Merckotest Glucose Reagent (Merck Specialities Pvt. Ltd., India).

Rats = assay: Estimation of urinary glucose in rat; assay type: in vivo; conditions: urine collected over 24 hrs
Description: Estimation of Urinary Glucose in Rat
Rats were fasted overnight (14 hrs) before drug treatment. Fasted rats were weighed and randomized into different groups based on their body weight (n=4). At time To test compounds and standard compound suspended in 0.25% C.M.C. or PEG 400 formulation were administered to respective groups and kept the animals in metabolic cages (1 rat/cage) after dosing. Animals were fed after drug administration and urine was collected over a period of 24 hrs. Urine volume was measured and urinary glucose was estimated using Merckotest Glucose Reagent (Merck Specialities Pvt. Ltd., India).

human SGLT-1 = target: T1, human SGLT-1 (Homo sapiens, UniProt P13866); assay: Methyl-α-D-[U-14C]Glucopyranoside uptake assay for SGLT-1 in CHO-K1 cells expressing hSGLT-1; assay type: cell-based; conditions: N.E. = Not Effective
T1 construct: Full-length human SGLT-1 cDNA in the pCMV-XL-Neo expression vector was obtained from Origene Corporation
T1 sequence (P13866 1-664): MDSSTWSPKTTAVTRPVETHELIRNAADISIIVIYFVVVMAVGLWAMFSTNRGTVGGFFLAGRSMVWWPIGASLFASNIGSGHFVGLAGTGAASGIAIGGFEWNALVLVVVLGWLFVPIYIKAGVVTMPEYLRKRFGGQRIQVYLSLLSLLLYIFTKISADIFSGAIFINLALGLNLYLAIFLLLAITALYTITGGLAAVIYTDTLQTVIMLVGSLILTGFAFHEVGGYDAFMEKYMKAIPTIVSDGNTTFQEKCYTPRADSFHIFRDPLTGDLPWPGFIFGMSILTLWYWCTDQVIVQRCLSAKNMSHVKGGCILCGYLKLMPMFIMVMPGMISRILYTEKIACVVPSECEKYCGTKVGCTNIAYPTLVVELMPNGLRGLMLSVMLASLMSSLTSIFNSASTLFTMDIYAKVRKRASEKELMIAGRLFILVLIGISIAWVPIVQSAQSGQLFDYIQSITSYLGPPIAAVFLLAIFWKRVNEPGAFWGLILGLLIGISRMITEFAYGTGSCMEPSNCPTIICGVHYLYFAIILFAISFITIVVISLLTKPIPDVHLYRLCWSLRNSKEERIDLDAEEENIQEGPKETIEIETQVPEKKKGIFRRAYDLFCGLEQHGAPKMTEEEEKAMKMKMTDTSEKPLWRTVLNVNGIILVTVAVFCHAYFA
Description: Preparation of Human SGLT-1 Expressing Cells
Full-length human SGLT-1 cDNA in the pCMV-XL-Neo expression vector was obtained from Origene Corporation and propagated in Escherichia coli strain DH5α using Luria-Bertani (LB) medium containing ampicillin. […] Stably transfected cells were selected using G418 antibiotic selection pressure.
Methyl-α-D-[U-^14C]Glucopyranoside Uptake Assay for SGLT-1
(§1) Cells expressing hSGLT-1 were seeded on 96-well tissue culture plates (Greiner, Inc.) in RPMI containing 10% FBS and 800 μg/ml G418 (0.8×10^5 cells per well in 200 μL medium) and incubated at 37° C. under 5% carbon dioxide for 24 h prior to the assay. Cells were washed twice with 200 μL of either sodium buffer (140 mM NaCl, 4.7 mM KCl, 2.2 mM CaCl2, 1.2 mM MgCl2, 10 mM Tris/Hepes, pH 7.4) or sodium-free buffer (137 mM N-methyl-glucamine, 4.7 mM KCl, 2.2 mM CaCl2, 1.2 mM MgCl2, 10 mM Tris/Hepes, pH 7.4). Reaction mixture containing test compounds diluted in assay buffer, 1 mM unlabeled Methyl-α-D-glucopyranoside and 1 μCi/well methyl-α-D-[U-^14C]glucopyranoside (American Radiochemicals) was added per well of a 96-well plate and incubated at 37° C. for 1 h. Cells were washed thrice with 200 μL of wash buffer (140 mM NaCl, 4.7 mM KCl, 2.2 mM CaCl2, 1.2 mM MgCl2, 10 mM Tris/Hepes, pH 7.4 containing 500 μM phlorizin) and lysed using 50 μL of 0.25N NaOH. Methyl-α-D-[U-^14C]glucopyranoside uptake was quantitated using a Top count scintillation counter (PerkinElmer, Inc.). All the test compounds were assayed in triplicates.

mouse SGLT-2 = target: T2, mouse SGLT-2 (Mus musculus, UniProt Q923I7); assay: Methyl-α-D-[U-14C]Glucopyranoside uptake assay for SGLT-2 in CHO-K1 cells expressing mSGLT-2; assay type: cell-based; conditions: N.E. = Not Effective
T2 construct: Full-length mouse SGLT-2 cDNA was amplified from C57BL/6J mouse kidneys and introduced in the pcDNA3.1(+) expression vector; expressed in transfected cells
T2 sequence (Q923I7 1-670): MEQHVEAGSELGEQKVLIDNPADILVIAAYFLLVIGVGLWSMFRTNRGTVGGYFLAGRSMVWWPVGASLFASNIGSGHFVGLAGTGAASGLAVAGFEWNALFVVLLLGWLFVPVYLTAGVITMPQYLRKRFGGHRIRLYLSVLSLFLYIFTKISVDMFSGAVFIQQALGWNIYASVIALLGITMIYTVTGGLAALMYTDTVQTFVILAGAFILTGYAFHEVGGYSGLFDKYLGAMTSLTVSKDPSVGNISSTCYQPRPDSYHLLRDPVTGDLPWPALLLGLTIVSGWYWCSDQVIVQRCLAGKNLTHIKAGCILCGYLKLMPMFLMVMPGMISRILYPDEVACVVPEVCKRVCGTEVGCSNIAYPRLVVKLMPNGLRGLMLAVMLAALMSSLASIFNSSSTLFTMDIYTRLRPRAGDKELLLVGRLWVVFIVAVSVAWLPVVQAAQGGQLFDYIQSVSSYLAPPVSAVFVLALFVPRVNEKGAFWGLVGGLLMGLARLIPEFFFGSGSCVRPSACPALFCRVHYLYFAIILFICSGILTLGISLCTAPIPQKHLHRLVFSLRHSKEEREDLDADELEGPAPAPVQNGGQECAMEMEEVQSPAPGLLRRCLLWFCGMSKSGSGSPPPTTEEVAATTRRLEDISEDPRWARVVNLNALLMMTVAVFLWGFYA
Description: Preparation of Mouse SGLT-2 Expressing Cells
Full-length mouse SGLT-2 cDNA was amplified from C57BL/6J mouse kidneys and introduced in the pcDNA3.1(+) expression vector (Invitrogen, Inc.) and propagated in Escherichia coli strain DH5α using Luria-Bertani (LB) medium containing ampicillin. […] Stably transfected cells were selected using G418 antibiotic selection pressure.
Methyl-α-D-[U-^14C]Glucopyranoside Uptake Assay for SGLT-2
as §1, with “Cells expressing mSGLT-2 were seeded” for “Cells expressing hSGLT-1 were seeded”, “FBS and 400 μg/mL G418 (0.8×10^5” for “FBS and 800 μg/ml G418 (0.8×10^5”, “test compounds at different concentrations diluted in” for “test compounds diluted in”, “assay buffer, 0.1 mM unlabeled” for “assay buffer, 1 mM unlabeled”, “1 μCi/well methyl-α-D[U-^14C]glucopyranoside (American Radiochemicals)” for “1 μCi/well methyl-α-D-[U-^14C]glucopyranoside (American Radiochemicals)”, “0.25N NaOH. Methyl-α-D[U-^14C]glucopyranoside uptake was” for “0.25N NaOH. Methyl-α-D-[U-^14C]glucopyranoside uptake was”

1-(4-(2-chloro-5-((2S,3R,4R,5S,6R)-3,4,5-trihydroxy-6-(hydroxymethyl)tetrahydro-2H-pyran-2-yl)benzyl)phenyl)ethanone O-methyl oxime [Compound 2]
UGE in mice (in mg/g of feed consumed) at 3 mpk (C57BL/6J mice): 88.9 mg/g of feed consumed | UGE in rat (in mg/g of feed consumed) at 3 mpk (Rats): 68.6 mg/g of feed consumed | % inhibition of Methyl-α-D-[U-14C] Glucopyranoside uptake (CHO-K1 cells) mediated by SGLT-1 (human SGLT-1; 100 nM compound): N.E. | % inhibition of Methyl-α-D-[U-14C] Glucopyranoside uptake (CHO-K1 cells) mediated by SGLT-1 (human SGLT-1; 1 μM compound): 33.10% | % inhibition of Methyl-α-D-[U-14C] Glucopyranoside uptake (CHO-K1 cells) mediated by SGLT-1 (human SGLT-1; 10 μM compound): 78.87% | % inhibition of Methyl-α-D-[U-14C] Glucopyranoside uptake (CHO-K1 cells) mediated by SGLT-2 (mouse SGLT-2; 0.1 nM compound): 16.73% | % inhibition of Methyl-α-D-[U-14C] Glucopyranoside uptake (CHO-K1 cells) mediated by SGLT-2 (mouse SGLT-2; 1 nM compound): 26.19% | % inhibition of Methyl-α-D-[U-14C] Glucopyranoside uptake (CHO-K1 cells) mediated by SGLT-2 (mouse SGLT-2; 10 nM compound): 73.13% | % inhibition of Methyl-α-D-[U-14C] Glucopyranoside uptake (CHO-K1 cells) mediated by SGLT-2 (mouse SGLT-2; 100 nM compound): 92.85%
